Data set [1] has as its system primary T cells. Briefly: Stem cell memory T cell phenotype by flow cytometry (CD45RA+CD62L+). The format is cell-based, human. Conditions: for stem cell frequency (Tscm phenotype ratio), fold increase over Control: day 20, gated on CD8. The method, then: Primary T cells were activated as described (Example 3), transduced with a lentivirus encoding for either a shUSP16 or a non-targeting shRNA (Ctrl) and sorted for GFP on day 8. Cells were cultured in the presence of IL-2 and their phenotype was analyzed at day 20. Cells were stained for CD4-PerCP-5.5 or CD8-BV510, CD62L-Allophycocyanin, CD45RA-BV510 or PE-Cy7 (Biolegend). Naïve or stem cell memory T cells (TNa/SCM) were identified as Sytox^− GFP^+CD45RA^+CD62L^+. Number of TNa/SCM was calculated as (#CD4 or CD8 T cells*TNa/SCMpercentage)/100. Flow cytometry was performed on the MACQuant (Myltenyi Biotec) and the data analyzed with FlowJo (shCtrl vs shUSP CD4: 0.4978 vs 0.7915, p=0.0673 and CD8: 2.469 vs 4.984, p=0.00392, n=7). Downregulation of USP16 expression increases the number of CD4+CD45RA+CD62L+(FIG. 11A) and CD8+CD45RA+CD62L+(FIG. 11B) cells in culture by 1.7 (p=0.0205) and 1.9 (p=0.0097) times, respectively.
Primary T cells were activated as described (Example 3), transduced with a lentivirus encoding either a shUSP16 #1, shUSP16 #2 or a non-targeting shRNA (shCtrl) and cells were selected with puromycin at day 6. At day 15 cell were collected and analyzed by qPCR for the expression of LEF1 (FIG. 16A) and TCF7 (FIG. 16B), downstream regulators of the WNT pathway. At day 20, cells were stained for CD4-PE, CD8-BV510, CD62L-Allophycocyanin and CD45RA-APC-Cy7 (Biolegend). Stem cell memory T cells (Tscm) were identified as Sytox^− GFP^+CD45RA^+CD62L^+, central memory T cells (Tcm) as Sytox^−GFP^+CD45RA^−CD62L^+, effector memory T cells (Tem) as Sytox^−GFP^+CD45RA^−CD62L^−, and terminal effector T cell (Teff) as Sytox^−GFP^+CD45RA^+CD62L^− (FIG. 17A). Cells were gated on the CD8 population. The specific increase of Tscm was shown as phenotype ratio (FIG. 17B).
Primary T cells were activated as described (Example 3). At Day 6 post-activation, dynabeads were removed and T cells electroporated using the Neon Transfection System (ThermoFisher) with a 2.5:1 ratio sgRNA:Cas9. The experiment was performed following the protocol optimized for primary T cell by Synthego (CRISPR Editing Human Primary CD4+ T cells with RNPs using Neon Electroporation Protocol, 2018 version). The sgRNA used are the following: gUSP16 #1 5′-[…]-3′ (SEQ ID NO: 10) and gSynthego that comprises 3 different sgRNAs (gRNA-A: 5′-[…] 3′ (SEQ ID NO: 11); gRNA-B: 5′-[…]-3′ (SEQ ID NO: 12); gRNA-C: 5′-[…]-3′ (SEQ ID NO: 13)). Control T cells, identified as Mock, were electroporated but no Cas9:sgRNA mixture was added. […] At day 15 post-activation, cells were stained for CD4-PE, CD8-BV510, CD62L-Allophycocyanin and CD45RA-APC-Cy7 (Biolegend). Stem cell memory T cells (Tscm) were identified as Sytox^−GFP^+CD45RA^+CD62L^+ and graphed as ratio compared to mock cells (FIG. 22). The experiment was repeated using primary T cells obtained from buffy coats of 2 different healthy donors.
Primary T cells were activated as described (Example 3), transduced with a lentivirus encoding for either a CD19.CAR or a GD2.CAR co-expressing shUSP16 #1, shUSP16 #2 or a scrambled shRNA (Control). At day 15, GD2.CAR and CD19.CAR T cells were stained for EGFR-AF488 (R&D), CD3-PE, CD8-BV510, CD62L-Allophycocyanin and CD45RA-APC-Cy7 (Biolegend). Stem cell memory T cells (Tscm) were identified as FITC^+CD45RA^+CD62L^+, central memory T cells (Tcm) as FITC^+CD45RA^−CD62L^+, effector memory T cells (Tem) as FITC^+CD45RA^−CD62L^−, and terminal effector T cell (Teff) as FITC^+CD45RA^+CD62L^−. Cells were gated on the CD8 population. The specific increase of Tscm was shown as phenotype ratio (FIGS. 28A and 28B).

Data set [2] relates to NALM leukemia cell line. Put plainly: In vivo anti-tumor activity of CD19.CAR T cells (circulating Gaussia luciferase). To be noted: immunocompromised mice, one million CD19.CAR T cells via tail vein, n=4-6. The method, then:
Primary T cells were activated and prepared, as in Example 26. NALM leukemia cell line was transduced with Gaussia Luciferase and one million cells were injected via tail vein at d−4. One million of CD19.CAR T cells were then infused via tail vein at d=0 and mice were weighted, and blood was collected every week (FIG. 38). Tumor growth was monitor by weekly assessment of circulating luciferase. Briefly, blood was collected and subsequently analyzed for luciferase expression using Nanolight Technologies Luciferase detection Kit. Luciferase expression (calculated as GLuc, RLU (Relative Luminescence Unit)) in the blood correlates with tumor engraftment. As NALM cells engraft primarily in the spleen, at the time of sacrifice, the spleens were collected and photographed (FIG. 39B), the size of the spleen directly correlates to the amount of tumor infiltrated in the organ.

For “shUSP16 #1: shRNA targeting USP16, 5′-GACTGTAAGACTGACAATAAA-3′ (SEQ ID NO: 8), pSIH backbone or co-expressed in CAR plasmid”, the “stem cell frequency (Tscm), fold change vs Control” value is reported as 1.994 in data set [1] (CD19.CAR, day 15, n=5) and 1.347 in data set [1] (GD2.CAR, day 15, n=4). The “stem cell frequency (Tscm phenotype ratio), fold increase over Control” value in data set [1] was found to be 2.022. Besides, the “NALM engraftment, luciferase expression in blood (GLuc)” value in data set [2] is recorded as 38603 RLU.
On to “shUSP16 #2: shRNA targeting USP16, 5′-TATATCAGTTCACCCGTAAT-3′ (SEQ ID NO: 9), pSIH backbone or co-expressed in CAR plasmid”, for which the “stem cell frequency (Tscm), fold change vs Control” value amounted to 2.273 in data set [1] (CD19.CAR, day 15, n=5) and 1.383 in data set [1] (GD2.CAR, day 15, n=4). In addition, the “stem cell frequency (Tscm phenotype ratio), fold increase over Control” value in data set [1] stood at 2.63. Moreover, in data set [2], the “NALM engraftment, luciferase expression in blood (GLuc)” value is listed as 5169 RLU.

(Values after patent US20210290680A1, “METHODS AND COMPOSITIONS FOR MODULATING CELLULAR AGING” (Dorian Therapeutics, Inc., priority 2019, published 2021).)
